Measurements: ChEMBL document CHEMBL2346631, “Thiazolidine-2,4-diones: progress towards multifarious applications” (Bioorg Med Chem, 2013)

Test system: Mus musculus
Experiment: Hypoglycemic activity in KKAy mouse assessed as reduction of blood glucose level at 38 mg/kg/day, po relative to control
Assay type: functional
Design: scale not given: the % may be the effect or the level left

For `Cc1oc(-c2ccccc2)nc1CCOc1ccc(CC2C(=O)NOC2=O)cc1` (stereo unspecified) [REGLITAZAR], the Activity was 25%.
